Here are results for 21 compounds from patent US20060223879A1, “Non-steroidal farnesoid x receptor modulators” (priority 2002, published 2006).

Like-named read-outs stand apart in the source and are kept apart here.

In one data set the target is T1, FXR (Homo sapiens, UniProt Q96RI1).
T1 construct: using a full length FXR on a natural response element; expressed in transfected cells
T1 sequence (Q96RI1 1-486): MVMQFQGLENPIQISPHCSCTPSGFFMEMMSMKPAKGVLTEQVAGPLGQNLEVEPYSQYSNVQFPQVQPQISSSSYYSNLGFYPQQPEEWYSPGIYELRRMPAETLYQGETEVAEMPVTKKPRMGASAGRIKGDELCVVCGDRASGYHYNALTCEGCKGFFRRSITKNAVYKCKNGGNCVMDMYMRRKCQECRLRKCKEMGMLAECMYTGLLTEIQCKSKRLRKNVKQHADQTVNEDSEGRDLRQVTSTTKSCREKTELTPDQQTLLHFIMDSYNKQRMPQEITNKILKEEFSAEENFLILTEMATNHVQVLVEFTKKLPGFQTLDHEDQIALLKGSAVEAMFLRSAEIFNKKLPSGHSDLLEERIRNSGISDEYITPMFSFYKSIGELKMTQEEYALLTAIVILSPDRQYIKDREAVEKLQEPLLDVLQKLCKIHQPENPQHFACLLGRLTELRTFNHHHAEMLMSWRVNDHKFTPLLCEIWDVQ
Briefly: cell-based transcription assay, FXR responsive promoter linked to a luciferase reporter. Also noted: RE: scale not given here. The note with it: for EC50: FXR activation, read-out: EC50; for EC50 / FXR activation (in words): cell-based reporter assay; for RE: RE not defined in the source. An outline of the steps:
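Cells co-transfected with full-length FXR and a luciferase reporter carrying a natural hormone response element on a minimal promoter.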

The next data set concerns the target T2, SXR (Homo sapiens, UniProt O75469).
T2 sequence (O75469 1-434): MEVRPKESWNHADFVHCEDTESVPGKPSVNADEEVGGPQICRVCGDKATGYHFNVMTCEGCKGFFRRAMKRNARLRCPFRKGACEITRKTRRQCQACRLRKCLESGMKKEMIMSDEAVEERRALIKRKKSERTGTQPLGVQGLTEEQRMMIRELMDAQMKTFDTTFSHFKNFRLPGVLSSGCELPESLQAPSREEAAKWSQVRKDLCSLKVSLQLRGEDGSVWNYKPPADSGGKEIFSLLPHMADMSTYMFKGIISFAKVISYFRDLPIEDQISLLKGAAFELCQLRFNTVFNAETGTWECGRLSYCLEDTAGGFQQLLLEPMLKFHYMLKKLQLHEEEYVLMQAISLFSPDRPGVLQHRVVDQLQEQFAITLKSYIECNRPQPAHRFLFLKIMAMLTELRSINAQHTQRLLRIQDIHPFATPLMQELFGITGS
Briefly: screen against a panel of nuclear receptors: SXR activation. It counts as cell-based. The note with it: nuclear receptor panel.

Broadly, the EC50 is the concentration needed to bring the measured effect to its halfway point. On to `COC(=O)/C=C/c1cccc(N(Cc2ccc3c(c2OC)OC(C)(C)C2C3C2(Cl)Cl)C(=O)C2CCCCC2)c1` (stereo not shown) [Compound 149], for which the EC50 on FXR amounted to 188 nM. Besides, the RE at FXR (Tables 1-15) was determined as 0.50. Moreover, the “SXR activation (in words)” value at SXR is recorded as “potently activated SXR”.
Turning to `COC(=O)/C=C/c1cccc(N(Cc2ccc(-c3ccc4c(c3)OCO4)cc2)C(=O)NC(C)C)c1` [Compound 246], at FXR (Tables 1-15), the EC50 worked out at 96 nM and the RE came to 1.51. On FXR, the “FXR activation (in words)” value is given as “excellent activity”.
Regarding `COC(=O)/C=C/c1cccc(N(Cc2ccc(-c3ccc(F)c(Cl)c3)cc2)C(=O)C2CCCCC2)c1` [Compound 247], on FXR (Tables 1-15), the concentration for a half-maximal effect (EC50) was found to be 66 nM and the RE was 1.67. At FXR, the “FXR activation (in words)” value is “excellent activity”.
`COC(=O)/C=C/c1cccc(N(Cc2ccc(-c3ccc(F)c(Cl)c3)cc2)C(=O)C(C)C)c1` [Compound 248]: at FXR (Tables 1-15), the EC50 amounted to 129 nM and the RE was found to be 1.64.
Turning to `COC(=O)/C=C/c1cccc(N(Cc2ccc(-c3ccc(F)c(Cl)c3)cc2)C(=O)NC(C)C)c1` [Compound 249], at FXR (Tables 1-15), the EC50 stood at 3050 nM and the RE amounted to 0.41.
Regarding `COC(=O)/C=C/c1cccc(N(Cc2ccc(-c3ccc(OC(F)(F)F)cc3)cc2)C(=O)C2CCCCC2)c1` [Compound 250], at FXR (Tables 1-15), the EC50 was found to be 264 nM and the RE is recorded as 1.04.
With `COC(=O)/C=C/c1cccc(N(Cc2ccc(-c3ccc(OC(F)(F)F)cc3)cc2)C(=O)C(C)C)c1` [Compound 251], at FXR (Tables 1-15), the EC50 amounted to 219 nM and the RE is reported as 0.78.
For `COC(=O)/C=C/c1cccc(N(Cc2ccc(-c3ccc(OC(F)(F)F)cc3)cc2)C(=O)NC(C)C)c1` [Compound 252], on FXR (Tables 1-15), the EC50 is 7530 nM and the RE was 0.21.
The like results for `COC(=O)/C=C/c1cccc(N(Cc2ccc(-c3cccc(OC(F)(F)F)c3)cc2)C(=O)C2CCCCC2)c1` [Compound 253] were, in that order, 420 nM and 0.84.
On to `COC(=O)/C=C/c1cccc(N(Cc2ccc(-c3cccc(OC(F)(F)F)c3)cc2)C(=O)C(C)C)c1` [Compound 254], for which, at FXR (Tables 1-15), the EC50 came out at 247 nM and the RE is on record as 0.59.
`COC(=O)/C=C/c1cccc(N(Cc2ccc(-c3cccc(OC(F)(F)F)c3)cc2)C(=O)NC(C)C)c1` [Compound 255]: at FXR (Tables 1-15), the concentration for a half-maximal effect (EC50) is > 10000 nM and the RE was 0.09.
Consider `COC(=O)/C=C/c1cccc(N(Cc2ccc(-c3c(OC)cccc3OC)cc2)C(=O)C2CCCCC2)c1` [Compound 256], for which, on FXR (Tables 1-15), the half-maximal effective concentration (EC50) was found to be 77 nM and the RE was 0.12. In addition, the “FXR activation (in words)” value at FXR is on record as “excellent activity”.
With `COC(=O)/C=C/c1cccc(N(Cc2ccc(-c3c(OC)cccc3OC)cc2)C(=O)C(C)C)c1` [Compound 257], at FXR (Tables 1-15), the EC50 is 95 nM and the RE was 0.10. For the same compound, the “FXR activation (in words)” value at FXR is on record as “excellent activity”.
Consider `COC(=O)/C=C/c1cccc(N(Cc2ccc(-c3c(OC)cccc3OC)cc2)C(=O)NC(C)C)c1` [Compound 258], for which, at FXR (Tables 1-15), the 50% effective concentration (EC50) is 561 nM and the RE stood at 0.10.
Turning to `COC(=O)/C=C/c1cccc(N(Cc2ccc(-c3ccc(N(C)C)cc3)cc2)C(=O)C2CCCCC2)c1` [Compound 259], on FXR, the concentration for a half-maximal effect (EC50) amounted to 25 nM and the “FXR activation (in words)” value is reported as “excellent activity”. In addition, on FXR (Tables 1-15), the RE worked out at 1.72.
With `COC(=O)/C=C/c1cccc(N(Cc2ccc(-c3ccc(N(C)C)cc3)cc2)C(=O)C(C)C)c1` [Compound 260], at FXR (Tables 1-15), the EC50 was found to be 57 nM and the RE was found to be 1.07. On FXR, the “FXR activation (in words)” value is “excellent activity”.
With `COC(=O)/C=C/c1cccc(N(Cc2ccc(-c3ccc(N(C)C)cc3)cc2)C(=O)NC(C)C)c1` [Compound 261], on FXR (Tables 1-15), the EC50 was 162 nM and the RE turned out to be 1.01.
As for `COC(=O)/C=C/c1cccc(N(Cc2ccc(-c3ccc(C(C)(C)C)cc3)cc2)C(=O)C2CCCCC2)c1` [Compound 262], on FXR (Tables 1-15), the EC50 amounted to 132 nM and the RE stood at 1.38.
Turning to `COC(=O)/C=C/c1cccc(N(Cc2ccc(-c3ccc(CC(C)C)cc3)cc2)C(=O)C(C)C)c1` [Compound 263], on FXR (Tables 1-15), the 50% effective concentration (EC50) worked out at 343 nM and the RE is given as 0.59.
Taken in the same sequence, the figures for `COC(=O)/C=C/c1cccc(N(Cc2ccc(-c3ccc(C(C)(C)C)cc3)cc2)C(=O)NC(C)C)c1` [Compound 264] were 262 nM and 1.02.
`COC(=O)/C=C/c1cccc(N(Cc2ccc(-c3cccc(OC)c3)cc2)C(=O)C2CCCCC2)c1` [i]: on FXR (Tables 1-15), the concentration giving a half-maximal response (EC50) amounted to 77 nM and the RE is listed as 1.51.
